The record followed here is patent US10435399B2, “HDAC6 inhibitory heterocyclic compound” (TAKEDA PHARMACEUTICAL COMPANY LIMITED, priority 2017, dated 2019).

The target in this assay is T1, HDAC6 enzyme (Homo sapiens, UniProt Q9UBN7).
T1 construct: transducing full length HDAC6 gene into Sf-9 insect cells; GST; purchased SignalChem; host or cells: Sf-9 insect cells
T1 sequence (Q9UBN7 1-1215): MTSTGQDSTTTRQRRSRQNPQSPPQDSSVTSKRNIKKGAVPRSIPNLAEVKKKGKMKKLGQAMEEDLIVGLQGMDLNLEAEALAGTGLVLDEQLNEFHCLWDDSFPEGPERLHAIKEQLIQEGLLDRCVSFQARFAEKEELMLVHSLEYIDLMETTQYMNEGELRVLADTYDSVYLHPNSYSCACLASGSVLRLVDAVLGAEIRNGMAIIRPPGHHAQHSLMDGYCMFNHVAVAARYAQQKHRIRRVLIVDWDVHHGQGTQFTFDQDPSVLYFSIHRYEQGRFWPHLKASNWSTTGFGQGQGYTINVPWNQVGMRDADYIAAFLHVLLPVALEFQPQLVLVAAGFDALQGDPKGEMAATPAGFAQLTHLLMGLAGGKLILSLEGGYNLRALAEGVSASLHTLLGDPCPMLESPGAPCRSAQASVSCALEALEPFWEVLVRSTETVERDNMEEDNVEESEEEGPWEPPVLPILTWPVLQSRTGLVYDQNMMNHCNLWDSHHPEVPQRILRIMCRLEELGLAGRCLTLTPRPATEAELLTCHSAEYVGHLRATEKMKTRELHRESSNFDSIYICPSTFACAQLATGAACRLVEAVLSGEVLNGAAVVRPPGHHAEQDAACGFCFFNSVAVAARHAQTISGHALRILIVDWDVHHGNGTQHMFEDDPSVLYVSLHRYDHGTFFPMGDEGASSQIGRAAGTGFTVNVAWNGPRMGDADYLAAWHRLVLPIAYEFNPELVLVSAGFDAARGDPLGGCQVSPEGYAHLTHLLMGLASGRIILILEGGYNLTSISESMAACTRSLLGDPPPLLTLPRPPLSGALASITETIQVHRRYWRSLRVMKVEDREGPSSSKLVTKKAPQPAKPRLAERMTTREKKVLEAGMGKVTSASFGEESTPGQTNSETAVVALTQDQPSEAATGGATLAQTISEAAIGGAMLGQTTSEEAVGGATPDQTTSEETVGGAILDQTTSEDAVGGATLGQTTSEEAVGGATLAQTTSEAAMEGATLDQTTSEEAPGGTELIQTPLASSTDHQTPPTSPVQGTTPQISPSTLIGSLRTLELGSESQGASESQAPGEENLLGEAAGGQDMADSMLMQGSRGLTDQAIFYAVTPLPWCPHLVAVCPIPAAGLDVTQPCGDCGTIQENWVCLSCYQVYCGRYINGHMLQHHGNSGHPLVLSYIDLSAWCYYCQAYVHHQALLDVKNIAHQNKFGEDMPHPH
In words: HDAC6 enzyme inhibitory activity (HDAC-Glo I/II Assay kit). The class given is biochemical. As to conditions: 10 μM; wells without enzyme = 100% inhibition; read-out: HDAC6 inhibitory rate (%) (10 μM). In short, it runs like this:
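Luminescent HDAC-Glo I/II readout after 20 min room-temperature reaction with substrate-developer, following 60 min compound–enzyme preincubation. Enzyme: full-length HDAC6 from Sf-9 cells, GST-purified; buffer 24 mM Tris-HCl pH 7.5, 0.01% Tween-20, glutathione, salts. Wells lacking enzyme define 100% inhibition.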
With `O=C1c2cc(-c3nnc(C(F)F)o3)cnc2CN1Cc1cccc(F)c1F` [Example 327, 6-(2,3-difluorobenzyl)-3-(5-(difluoromethyl)-1,3,4-oxadiazol-2-yl)-6,7-dihydro-5H-pyrrolo[3,4-b]pyridin-5-one], the inhibition at 10 µM was 99%.

Turning to `O=C1c2cc(-c3nnc(C(F)F)o3)cnc2CN1Cc1ccc(F)cc1` [Example 328, 3-(5-(difluoromethyl)-1,3,4-oxadiazol-2-yl)-6-(4-fluorobenzyl)-6,7-dihydro-5H-pyrrolo[3,4-b]pyridin-5-one], the inhibition at 10 µM turned out to be 98%.

For the molecule `O=C1c2cc(-c3nnc(C(F)F)o3)cnc2CN1Cc1c(F)cccc1F` [Example 329, 6-(2,6-difluorobenzyl)-3-(5-(difluoromethyl)-1,3,4-oxadiazol-2-yl)-6,7-dihydro-5H-pyrrolo[3,4-b]pyridin-5-one], the inhibition at 10 µM is 99%.

In the case of `O=C1c2cc(-c3nnc(C(F)F)o3)ccc2CN1c1ccccc1-n1cccn1` [Example 330, 6-(5-(difluoromethyl)-1,3,4-oxadiazol-2-yl)-2-(2-(1H-pyrazol-1-yl)phenyl)-isoindolin-1-one], the inhibition at 10 µM is 99%.

For the molecule `CC(C)(C)OC(=O)N1CC(F)(F)C[C@H]1CN1Cc2c(F)cc(-c3nnc(C(F)F)o3)cc2C1=O` [Example 331, tert-butyl (2S)-2-((6-(5-(difluoromethyl)-1,3,4-oxadiazol-2-yl)-4-fluoro-1-oxo-1,3-dihydro-2H-isoindol-2-yl)methyl)-4,4-difluoropyrrolidine-1-carboxylate], the inhibition at 10 µM came to 97%.

Regarding `COc1ccc(CN2Cc3ncc(-c4nnc(C(F)F)o4)cc3C2=O)cc1` [Example 332, 3-(5-(difluoromethyl)-1,3,4-oxadiazol-2-yl)-6-(4-methoxybenzyl)-6,7-dihydro-5H-pyrrolo[3,4-b]pyridin-5-one], the inhibition at 10 µM was determined as 99%.

In the case of `O=C1c2cc(-c3nnc(C(F)F)o3)cnc2CN1Cc1ccc(Cl)cc1` [Example 333, 6-(4-chlorobenzyl)-3-(5-(difluoromethyl)-1,3,4-oxadiazol-2-yl)-6,7-dihydro-5H-pyrrolo[3,4-b]pyridin-5-one], the inhibition at 10 µM was found to be 97%.

For the molecule `O=C1c2cc(-c3nnc(C(F)F)o3)cnc2CN1Cc1ccc(C(F)(F)F)cc1` [Example 334, 3-(5-(difluoromethyl)-1,3,4-oxadiazol-2-yl)-6-(4-(trifluoromethyl)benzyl)-6,7-dihydro-5H-pyrrolo[3,4-b]pyridin-5-one], the inhibition at 10 µM is 93%.

Turning to `O=C1c2cc(-c3nnc(C(F)F)o3)cnc2CN1Cc1ccc(OC(F)F)cc1` [Example 335], the inhibition at 10 µM was 101%.

For `O=C1c2cc(-c3nnc(C(F)F)o3)cc(F)c2CN1C[C@@H]1CCCN1S(=O)(=O)C1CC1` [Example 336, 2-(((2S)-1-(cyclopropyl-sulfonyl)pyrrolidin-2-yl)methyl)-6-(5-(difluoromethyl)-1,3,4-oxadiazol-2-yl)-4-fluoroisoindolin-1-one], the inhibition at 10 µM was 102%.

For `O=C1c2cc(-c3nnc(C(F)F)o3)ccc2CN1[C@@H]1CCCC[C@H]1N(C(=O)C(F)F)c1ccccn1` [Example 337, N-((1R,2R)-2-(6-(5-(difluoromethyl)-1,3,4-oxadiazol-2-yl)-1-oxo-1,3-dihydro-2H-isoindol-2-yl)-cyclohexyl)-2,2-difluoro-N-(pyridin-2-yl)acetamide], the inhibition at 10 µM stood at 101%.

As for `O=C1c2cc(-c3nnc(C(F)F)o3)cnc2CN1Cc1ccc(F)c(F)c1` [Example 338, 6-(3,4-difluorobenzyl)-3-(5-(difluoromethyl)-1,3,4-oxadiazol-2-yl)-6,7-dihydro-5H-pyrrolo[3,4-b]pyridin-5-one], the inhibition at 10 µM came out at 97%.

For the molecule `O=C1c2cc(-c3nnc(C(F)F)o3)cnc2CN1Cc1ccccc1C(F)(F)F` [Example 339, 3-(5-(difluoromethyl)-1,3,4-oxadiazol-2-yl)-6-(2-(trifluoromethyl)benzyl)-6,7-dihydro-5H-pyrrolo[3,4-b]-pyridin-5-one], the inhibition at 10 µM stood at 96%.

Take `O=C1c2cc(-c3nnc(C(F)F)o3)cnc2CN1Cc1ccccc1Cl` [Example 340, 6-(2-chlorobenzyl)-3-(5-(difluoromethyl)-1,3,4-oxadiazol-2-yl)-6,7-dihydro-5H-pyrrolo[3,4-b]pyridin-5-one]: the inhibition at 10 µM is 96%.

As to `CC(C)(C)OC(=O)NCC1(N2Cc3c(F)cc(-c4nnc(C(F)F)o4)cc3C2=O)CCCCC1` [Example 341, tert-butyl ((1-(6-(5-(difluoromethyl)-1,3,4-oxadiazol-2-yl)-4-fluoro-1-oxo-1,3-dihydro-2H-isoindol-2-yl)cyclohexyl)-methyl)carbamate], the inhibition at 10 µM was 82%.

Turning to `O=C1c2cc(-c3nnc(C(F)F)o3)cnc2CN1Cc1cccc(Cl)c1` [Example 342, 6-(3-chlorobenzyl)-3-(5-(difluoromethyl)-1,3,4,- oxadiazol-2-yl)-6,7-dihydro-5H-pyrrolo[3,4-b]pyridin-5-one], the inhibition at 10 µM stood at 100%.

`O=C1c2cc(-c3nnc(C(F)F)o3)cc(F)c2CN1C[C@@H]1CC(F)(F)CN1S(=O)(=O)C1CC1` [Example 343, 2-(((2S)-1-(cyclopropyl-sulfonyl)-4,4-difluoro-pyrrolidin-2-yl)methyl)-6-(5-(difluoromethyl)-1,3,4-oxadiazol-2-yl)-4-fluoroisoindolin-1-one]: the inhibition at 10 µM came to 100%.

Consider `O=C1c2cc(-c3nnc(C(F)F)o3)cc(F)c2CN1C[C@@H]1CC(F)(F)CN1S(=O)(=O)CC(F)(F)F` [Example 344, 6-(5-(difluoromethyl)-1,3,4-oxadiazol-2-yl)-2-(((2S)-4,4-difluoro-1-((2,2,2-trifluoro-ethyl)sulfonyl)pyrrolidin-2-yl)methyl)-4-fluoroiso-indolin-1-one], for which the inhibition at 10 µM turned out to be 100%.

`O=C1c2cc(-c3nnc(C(F)F)o3)cc(F)c2CN1C[C@@H]1CC(F)(F)CN1S(=O)(=O)c1cccc(F)c1` [Example 345, 2-(((2S)-4,4-difluoro-1-((3-fluorophenyl)sulfonyl)-pyrrolidin-2-yl)methyl)-6-(5-(difluoromethyl)-1,3,4-oxadiazol-2-yl)-4-fluoro-isoindolin-1-one]: the inhibition at 10 µM was 99%.

Consider `O=C1c2cc(-c3nnc(C(F)F)o3)cnc2CN1Cc1ccncc1` [Example 346, 3-(5-(difluoromethyl)-1,3,4-oxadiazol-2-yl)-6-(pyridin-4-ylmethyl)-6,7-dihydro-5H-pyrrolo[3,4-b]pyridin-5-one], for which the inhibition at 10 µM worked out at 94%.

As to `O=C1c2cc(-c3nnc(C(F)F)o3)cnc2CN1C1(c2ccc(F)cc2)CC1` [Example 347, 3-(5-(difluoromethyl)-1,3,4-oxadiazol-2-yl)-6-(1-(4-fluorophenyl)cyclopropyl)-6,7-dihydro-5H-pyrrolo[3,4-b]pyridin-5-one], the inhibition at 10 µM turned out to be 98%.

Take `O=C1c2cc(-c3nnc(C(F)F)o3)cnc2CN1Cc1ccc(F)cc1F` [Example 348, 6-(2,4-difluorobenzyl)-3-(5-(difluoromethyl)-1,3,4-oxadiazol-2-yl)-6,7-dihydro-5H-pyrrolo-[3,4-b]pyridin-5-one]: the inhibition at 10 µM was found to be 99%.

Turning to `Cc1cc(CN2Cc3ncc(-c4nnc(C(F)F)o4)cc3C2=O)no1` [Example 349, 3-(5-(difluoromethyl)-1,3,4-oxadiazol-2-yl)-6-((5-methyl-1,2-oxazol-3-yl)methyl)-6,7-dihydro-5H-pyrrolo[3,4-b]pyridin-5-one], the inhibition at 10 µM was determined as 99%.

Turning to `O=C1c2cc(-c3nnc(C(F)F)o3)cnc2CN1C1(c2ccccc2F)CC1` [Example 350, 3-(5-(difluoromethyl)-1,3,4-oxadiazol-2-yl)-6-(1-(2-fluorophenyl)cyclopropyl)-6,7-dihydro-5H-pyrrolo[3,4-b]pyridin-5-one], the inhibition at 10 µM is 99%.

Consider `O=C1c2cc(-c3nnc(C(F)F)o3)cnc2CN1Cc1ccccc1F` [Example 351, 3-(5-(difluoromethyl)-1,3,4-oxadiazol-2-yl)-6-(2-fluoro-benzyl)-6,7-dihydro-5H-pyrrolo[3,4-b]pyridin-5-one], for which the inhibition at 10 µM came out at 98%.
